Measurements taken from patent US10246417B2, “Picolinamides as fungicides” (Dow AgroSciences LLC, priority 2017, dated 2019).

system: Phakopsora pachyrhizi; assay: Fungicidal activity: Asian soybean rust (PHAKPA), soybean seedlings; type: in vivo; conditions: High volume, 25 ppm, 3 Day Curative
Experimental: Example C: Evaluation of Fungicidal Activity: Asian Soybean Rust (Phakopsora pachyrhizi; Bayer Code […]) Technical grades of materials were dissolved in acetone, which were then mixed with nine volumes of water containing 0.011% Tween 20. The fungicide solutions were applied onto soybean seedlings using an automated booth sprayer to run-off. All sprayed plants were allowed to air dry prior to further handling. Soybean plants (variety Williams 82) were grown in soil-less Metro mix, with one plant per pot. Two week old seedlings were used for testing. Plants were inoculated either 3 days prior to or 1 day after fungicide treatments. Plants were incubated for 24 h in a dark dew room at 22° C. and 100% relative humidity then transferred to a growth room at 23° C. for disease to develop. Disease severity was assessed on the sprayed leaves.

Structure (SMILES)	PHAKPA disease control, 3DC
COc1ccnc(C(=O)N[C@@H](C)C(=O)O[C@@H](C)[C@@H](c2ccc(F)cc2C)C(C)C)c1OC(C)=O [compound 178]	B (≤80)
COc1ccnc(C(=O)N[C@@H](C)C(=O)O[C@H](C)[C@H](c2ccc(F)cc2C)C(C)C)c1OC(C)=O [compound 192]	B (≤80)
COc1ccnc(C(=O)N[C@@H](C)C(=O)O[C@@H](C)[C@H](c2ccc(C)cc2F)C(C)C)c1OC(C)=O [compound 366]	B (≤80)
COc1ccnc(C(=O)N[C@@H](C)C(=O)O[C@@H](C)[C@@H](c2ccc(C)cc2F)C(C)C)c1OC(C)=O [compound 369]	B (≤80)
